For one assay, the target named is T1, BRG1 (Homo sapiens, UniProt P51532).
T1 construct: either BRM primary antibody (Cell signaling Cat #11966) or BRG primary antibody (Abcam, ab 110641); endogenous in cells; host or cells: SW1573
The assay can be described thus: Immunofluorescence assay for BRG1 degradation in SW1573 cells. As to conditions: 20 hours incubation; for DC50: immunofluorescence mean nuclear signal, read-out: BRG1 IF Degradation IC50; for Dmax: SW1573, 20 h, normalized to a known degrader control, read-out: BRG1 IF Degradation Sinf (%). The class given is cell-based. The method, then:
(§1) Example B-2: Immunofluorescence Assay for BRM and BRG1 Degraders
(§2) SW1573 cells were seeded at 3000 cells/well in 384 well plates. The next day, compounds were added using an Echo dispenser. After 20 hours of incubation with compound, cells were fixed with 4% formaldehyde then permeabilized with 0.2% Triton X-100 and blocked with 10% FCS. Fixed and permeabilized cells were treated overnight at 4° C. with either BRM primary antibody (Cell signaling Cat #11966) or BRG primary antibody (Abcam, ab 110641). Finally, cells were treated with fluorescently labeled secondary antibodies for 1 hr (Donkey anti-Rabbit IgG AF488, Life Technologies, A21206) and Hoechst nuclear stain (#H3569) was added for 30 minutes. Cells were washed with PBS in between each step and before imaging on an Opera Phenix microscope (Perkin Elmer). Harmony software (Perking Elmer) was used to quantify the mean nuclear signaling intensity of BRM or BRG signaling per cell in each well. Dose responses were determined from the concentration dependent response of mean nuclear signal intensity with data normalized to a known degrader control. Dose response curves were fit to a floating maximum to allow for calculation of the Dmax.
(§3) Note that, in Table 5, the “Compound Number” corresponds to that used in Table 1. In Table 5, for BRM and BRG1 IF degradation IC50 (μM): A indicates <0.010 μM, B indicates 0.010-0.10 μM, and C indicates >0.10 μM; and for BRM and BRG1 IF degradation Sinf % D indicates 0-−30%, E indicates −30%-−70%, F indicates −71%-−120% and ND indicates the value was not determined.

For the next assay, the target named is BRM (Homo sapiens, UniProt P51531). The assay can be described thus: Immunofluorescence assay for BRM degradation in SW1573 cells. It is filed as cell-based. On the set-up: treated overnight at 4° C. with either BRM primary antibody (Cell signaling Cat #11966) or BRG primary antibody; endogenous in cells; host or cells: SW1573. As to conditions: 20 hours incubation; for DC50: immunofluorescence mean nuclear signal, read-out: BRM IF Degradation IC50; for BRM IF Degradation Sinf (%): normalized to a known degrader control. The method, then:
as §1, §2, §3

SMILES strings stand for the structures.

T1 sequence (P51532 whole entry): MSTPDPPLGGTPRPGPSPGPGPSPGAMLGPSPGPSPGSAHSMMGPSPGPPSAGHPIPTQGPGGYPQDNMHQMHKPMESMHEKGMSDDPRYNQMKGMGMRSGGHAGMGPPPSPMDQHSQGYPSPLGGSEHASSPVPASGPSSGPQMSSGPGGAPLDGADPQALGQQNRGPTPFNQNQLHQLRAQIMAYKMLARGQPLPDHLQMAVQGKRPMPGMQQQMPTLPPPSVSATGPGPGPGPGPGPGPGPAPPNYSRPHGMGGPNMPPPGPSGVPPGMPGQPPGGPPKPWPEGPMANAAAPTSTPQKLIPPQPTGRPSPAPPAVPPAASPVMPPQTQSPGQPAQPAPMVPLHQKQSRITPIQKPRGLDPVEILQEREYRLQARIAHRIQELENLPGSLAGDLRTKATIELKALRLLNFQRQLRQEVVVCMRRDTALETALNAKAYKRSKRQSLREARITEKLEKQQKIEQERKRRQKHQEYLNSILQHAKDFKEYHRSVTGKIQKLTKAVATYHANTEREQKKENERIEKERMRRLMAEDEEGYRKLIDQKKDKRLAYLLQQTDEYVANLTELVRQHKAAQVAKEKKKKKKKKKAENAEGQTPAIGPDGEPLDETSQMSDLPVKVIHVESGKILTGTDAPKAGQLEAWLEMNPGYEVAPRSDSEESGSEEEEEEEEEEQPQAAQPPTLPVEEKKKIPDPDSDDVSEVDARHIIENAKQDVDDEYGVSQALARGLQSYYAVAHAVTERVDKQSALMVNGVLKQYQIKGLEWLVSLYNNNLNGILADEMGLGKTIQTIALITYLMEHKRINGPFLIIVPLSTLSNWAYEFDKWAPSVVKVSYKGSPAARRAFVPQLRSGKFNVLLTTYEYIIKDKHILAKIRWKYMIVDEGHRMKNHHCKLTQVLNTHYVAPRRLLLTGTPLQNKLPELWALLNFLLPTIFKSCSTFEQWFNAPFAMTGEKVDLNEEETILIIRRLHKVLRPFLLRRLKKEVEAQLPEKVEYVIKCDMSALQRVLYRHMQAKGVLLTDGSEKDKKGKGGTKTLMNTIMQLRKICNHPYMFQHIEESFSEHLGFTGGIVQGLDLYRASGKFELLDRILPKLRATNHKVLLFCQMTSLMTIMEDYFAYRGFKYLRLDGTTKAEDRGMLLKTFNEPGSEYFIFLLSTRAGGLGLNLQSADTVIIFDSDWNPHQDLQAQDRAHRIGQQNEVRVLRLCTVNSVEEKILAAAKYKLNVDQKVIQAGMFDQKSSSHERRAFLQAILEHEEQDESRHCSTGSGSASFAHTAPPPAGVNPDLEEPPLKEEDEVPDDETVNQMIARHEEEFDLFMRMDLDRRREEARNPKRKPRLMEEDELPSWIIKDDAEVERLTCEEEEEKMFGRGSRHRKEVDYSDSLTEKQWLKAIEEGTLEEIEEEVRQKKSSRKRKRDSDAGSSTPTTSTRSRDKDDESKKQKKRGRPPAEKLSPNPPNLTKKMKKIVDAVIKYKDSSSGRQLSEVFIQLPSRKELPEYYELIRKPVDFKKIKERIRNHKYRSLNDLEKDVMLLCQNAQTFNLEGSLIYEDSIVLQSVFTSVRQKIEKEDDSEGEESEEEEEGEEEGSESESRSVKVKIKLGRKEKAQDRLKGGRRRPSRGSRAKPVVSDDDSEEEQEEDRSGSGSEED
Chain of BRM (P51531 whole entry): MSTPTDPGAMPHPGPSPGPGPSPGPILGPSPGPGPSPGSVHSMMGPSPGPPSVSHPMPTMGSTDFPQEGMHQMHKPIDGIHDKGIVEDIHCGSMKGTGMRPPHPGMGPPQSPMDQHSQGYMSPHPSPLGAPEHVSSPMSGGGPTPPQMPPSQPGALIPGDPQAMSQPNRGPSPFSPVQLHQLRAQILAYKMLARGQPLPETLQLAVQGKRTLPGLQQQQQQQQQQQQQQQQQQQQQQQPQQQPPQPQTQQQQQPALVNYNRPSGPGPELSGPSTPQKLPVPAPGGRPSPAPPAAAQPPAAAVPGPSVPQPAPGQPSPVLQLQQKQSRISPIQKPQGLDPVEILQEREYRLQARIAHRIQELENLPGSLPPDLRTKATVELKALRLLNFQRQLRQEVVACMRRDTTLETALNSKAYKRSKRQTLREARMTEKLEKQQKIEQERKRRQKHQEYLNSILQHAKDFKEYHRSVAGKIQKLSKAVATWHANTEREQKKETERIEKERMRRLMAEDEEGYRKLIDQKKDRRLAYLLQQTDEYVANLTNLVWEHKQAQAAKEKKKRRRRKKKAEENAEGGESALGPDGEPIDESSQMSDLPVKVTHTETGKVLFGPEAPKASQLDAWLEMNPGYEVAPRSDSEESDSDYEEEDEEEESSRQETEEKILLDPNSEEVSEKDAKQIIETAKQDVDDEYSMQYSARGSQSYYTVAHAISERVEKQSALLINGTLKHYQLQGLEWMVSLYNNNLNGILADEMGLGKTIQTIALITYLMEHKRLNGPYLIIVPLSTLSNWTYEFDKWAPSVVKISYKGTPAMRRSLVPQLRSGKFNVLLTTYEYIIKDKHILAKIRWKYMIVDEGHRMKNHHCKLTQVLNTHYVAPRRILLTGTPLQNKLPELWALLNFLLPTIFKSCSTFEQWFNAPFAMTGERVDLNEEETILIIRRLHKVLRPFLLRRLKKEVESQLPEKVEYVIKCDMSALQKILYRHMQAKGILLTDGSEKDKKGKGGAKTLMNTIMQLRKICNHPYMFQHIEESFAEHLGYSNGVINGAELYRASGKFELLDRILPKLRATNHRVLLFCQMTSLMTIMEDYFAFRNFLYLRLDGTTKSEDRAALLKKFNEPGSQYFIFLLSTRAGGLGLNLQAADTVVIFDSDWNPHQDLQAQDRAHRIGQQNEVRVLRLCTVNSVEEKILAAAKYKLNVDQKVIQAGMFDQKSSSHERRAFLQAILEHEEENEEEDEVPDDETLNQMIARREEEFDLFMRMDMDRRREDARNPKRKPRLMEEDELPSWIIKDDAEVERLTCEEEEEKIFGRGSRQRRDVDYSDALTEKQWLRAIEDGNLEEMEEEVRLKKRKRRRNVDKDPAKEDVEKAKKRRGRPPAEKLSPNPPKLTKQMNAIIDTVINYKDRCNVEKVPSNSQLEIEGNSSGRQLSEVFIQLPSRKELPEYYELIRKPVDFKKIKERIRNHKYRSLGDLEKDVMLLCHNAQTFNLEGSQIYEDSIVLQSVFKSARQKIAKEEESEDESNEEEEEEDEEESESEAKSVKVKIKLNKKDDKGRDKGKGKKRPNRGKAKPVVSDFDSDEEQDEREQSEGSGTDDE

Take `Nc1nnc(-c2ccccc2O)cc1N1CC2CCC(C1)N2c1ccnc(C#CCN2CCC[C@H]2CO)c1` [Compound 46, 2-[6-amino-5-[8-[2-[3-[(2S)-2-(hydroxymethyl)pyrrolidin-1-yl]prop-1-ynyl]-4-pyridyl]-3,8-diazabicyclo[3.2.1]octan-3-yl]pyridazin-3-yl]phenol]: on BRG1, the DC50 was 10 to 100 nM and the Dmax lay in the range of 30 to 70%. Besides, on BRM, the DC50 was less than 10 nM and the “BRM IF Degradation Sinf (%)” value is “E (E indicates −30%-−70%)”.

Regarding `CN1CCCN(CC#Cc2cc(N3C4CCC3CN(c3cc(-c5ccccc5O)nnc3N)C4)ccn2)CC1` [Compound 47, 2-[6-amino-5-[8-[2-[3-(4-methyl-1,4-diazepan-1-yl)prop-1-ynyl]-4-pyridyl]-3,8-diazabicyclo[3.2.1]octan-3-yl]pyridazin-3-yl]phenol], at BRG1, the DC50 is greater than 100 nM and the Dmax was in the range of 0 to 30%. On BRM, the DC50 was greater than 100 nM and the “BRM IF Degradation Sinf (%)” value was “E (E indicates −30%-−70%)”.

`CC[C@@H]1COCCN1CC#Cc1cc(N2C3CCC2CN(c2cc(-c4ccccc4O)nnc2N)C3)ccn1` [Compound 48, 2-[6-amino-5-[8-[2-[3-[(3R)-3-ethylmorpholin-4-yl]prop-1-ynyl]-4-pyridyl]-3,8-diazabicyclo[3.2.1]octan-3-yl]pyridazin-3-yl]phenol]: on BRG1, the DC50 is 10 to 100 nM and the Dmax lay in the range of 0 to 30%. Further, on BRM, the DC50 fell in the range of 10 to 100 nM and the “BRM IF Degradation Sinf (%)” value is listed as “E (E indicates −30%-−70%)”.

On to `Nc1nnc(-c2ccccc2O)cc1N1CC2CCC(C1)N2c1ccnc(C#CCN2CC3(CCOCC3)C2)c1` [Compound 49, 2-[6-amino-5-[8-[2-[3-(7-oxa-2-azaspiro[3.5]nonan-2-yl)prop-1-ynyl]-4-pyridyl]-3,8-diazabicyclo[3.2.1]octan-3-yl]pyridazin-3-yl]phenol], for which, at BRG1, the DC50 is less than 10 nM and the Dmax lay within 30 to 70%. Besides, on BRM, the DC50 was less than 10 nM and the “BRM IF Degradation Sinf (%)” value is “F (F indicates −71%-−120%)”.

With `Nc1nnc(-c2ccccc2O)cc1N1CC2CCC(C1)N2c1ccnc(C#CCN2CCCC(O)C2)c1` (stereo not shown) [Compound 50, 1-[3-[4-[3-[3-amino-6-(2-hydroxyphenyl)pyridazin-4-yl]-3,8-diazabicyclo[3.2.1]octan-8-yl]-2-pyridyl]prop-2-ynyl]piperidin-3-ol], on BRG1, the DC50 is greater than 100 nM and the Dmax is 30 to 70%. Moreover, at BRM, the DC50 lay in the range of 10 to 100 nM and the “BRM IF Degradation Sinf (%)” value is “E (E indicates −30%-−70%)”.

Turning to `CN(CC#Cc1cc(N2C3CCC2CN(c2cc(-c4ccccc4O)nnc2N)C3)ccn1)C1CCS(=O)(=O)C1` (stereo not shown) [Compound 51, 2-[6-amino-5-[8-[2-[3-[(1,1-dioxothiolan-3-yl)-methyl-amino]prop-1-ynyl]-4-pyridyl]-3,8-diazabicyclo[3.2.1]octan-3-yl]pyridazin-3-yl]phenol], on BRG1, the DC50 was greater than 100 nM and the Dmax lay in the range of 30 to 70%. Besides, at BRM, the DC50 is greater than 100 nM and the “BRM IF Degradation Sinf (%)” value is “E (E indicates −30%-−70%)”.

For `Nc1nnc(-c2ccccc2O)cc1N1CC2CCC(C1)N2c1ccnc(C#CCN2CCC(O)C2)c1` (stereo not shown) [Compound 52, 1-[3-[4-[3-[3-amino-6-(2-hydroxyphenyl)pyridazin-4-yl]-3,8-diazabicyclo[3.2.1]octan-8-yl]-2-pyridyl]prop-2-ynyl]pyrrolidin-3-ol], at BRG1, the DC50 is 10 to 100 nM and the Dmax lay in the range of 30 to 70%. On BRM, the DC50 lay in the range of 10 to 100 nM and the “BRM IF Degradation Sinf (%)” value was “E (E indicates −30%-−70%)”.

`Nc1nnc(-c2ccccc2O)cc1N1CC2CCC(C1)N2c1ccnc(C#CCN2CCn3ccnc3C2)c1` [Compound 53, 2-[6-amino-5-[8-[2-[3-(6,8-dihydro-5H-imidazo[1,2-a]pyrazin-7-yl)prop-1-ynyl]-4-pyridyl]-3,8-diazabicyclo[3.2.1]octan-3-yl]pyridazin-3-yl]phenol]: on BRG1, the DC50 fell in the range of 10 to 100 nM and the Dmax fell in the range of 0 to 30%. Moreover, on BRM, the DC50 lay in the range of 10 to 100 nM and the “BRM IF Degradation Sinf (%)” value is “E (E indicates −30%-−70%)”.

As to `Nc1nnc(-c2ccccc2O)cc1N1CC2CCC(C1)N2c1ccnc(C#CCN2CC3CNCC3C2)c1` (stereo not shown) [Compound 54, 2-[5-[8-[2-[3-(2,3,3a,4,6,6a-hexahydro-1H-pyrrolo[3,4-c]pyrrol-5-yl)prop-1-ynyl]-4-pyridyl]-3,8-diazabicyclo[3.2.1]octan-3-yl]-6-amino-pyridazin-3-yl]phenol], at BRG1, the DC50 was greater than 100 nM and the Dmax fell in the range of 30 to 70%. Moreover, at BRM, the DC50 is greater than 100 nM and the “BRM IF Degradation Sinf (%)” value is given as “F (F indicates −71%-−120%)”.

With `Nc1nnc(-c2ccccc2O)cc1N1CC2CCC(C1)N2c1ccnc(C#CCN2CCCCC2CO)c1` (stereo not shown) [Compound 55, 2-[6-amino-5-[8-[2-[3-[2-(hydroxymethyl)-1-piperidyl]prop-1-ynyl]-4-pyridyl]-3,8-diazabicyclo[3.2.1]octan-3-yl]pyridazin-3-yl]phenol], at BRG1, the DC50 lay in the range of 10 to 100 nM and the Dmax was in the range of 30 to 70%. In addition, on BRM, the DC50 lay in the range of 10 to 100 nM and the “BRM IF Degradation Sinf (%)” value is given as “E (E indicates −30%-−70%)”.

For `Nc1nnc(-c2ccccc2O)cc1N1CC2CCC(C1)N2c1ccnc(C#CCN2Cc3cccnc3C2)c1` [Compound 56, 2-[6-amino-5-[8-[2-[3-(5,7-dihydropyrrolo[3,4-b]pyridin-6-yl)prop-1-ynyl]-4-pyridyl]-3,8-diazabicyclo[3.2.1]octan-3-yl]pyridazin-3-yl]phenol], at BRG1, the DC50 was greater than 100 nM and the Dmax was 0 to 30%. Besides, on BRM, the DC50 lay within 10 to 100 nM and the “BRM IF Degradation Sinf (%)” value is on record as “E (E indicates −30%-−70%)”.

With `CC1COCCN1CC#Cc1cc(N2C3CCC2CN(c2cc(-c4ccccc4O)nnc2N)C3)ccn1` (stereo not shown) [Compound 57, 2-[6-amino-5-[8-[2-[3-(3-methylmorpholin-4-yl)prop-1-ynyl]-4-pyridyl]-3,8-diazabicyclo[3.2.1]octan-3-yl]pyridazin-3-yl]phenol], the DC50 on BRG1 was greater than 100 nM. Moreover, on BRM, the DC50 is 10 to 100 nM and the “BRM IF Degradation Sinf (%)” value is recorded as “E (E indicates −30%-−70%)”.

For `Nc1nnc(-c2ccccc2O)cc1N1CC2CCC(C1)N2c1ccnc(C#CCN2CCCCCC2)c1` [Compound 58, 2-(6-amino-5-(8-(2-(3-(azepan-1-yl)prop-1-yn-1-yl)pyridin-4-yl)-3,8-diazabicyclo[3.2.1]octan-3-yl)pyridazin-3-yl)phenol], at BRG1, the DC50 was less than 10 nM and the Dmax fell in the range of 30 to 70%. Moreover, on BRM, the DC50 is less than 10 nM and the “BRM IF Degradation Sinf (%)” value is “F (F indicates −71%-−120%)”.

On to `C[C@@H]1CN(CC#Cc2cc(N3C4CCC3CN(c3cc(-c5ccccc5O)nnc3N)C4)ccn2)C[C@H](C)O1` [Compound 59, 2-[6-amino-5-[8-[2-[3-[(2S,6R)-2,6-dimethylmorpholin-4-yl]prop-1-ynyl]-4-pyridyl]-3,8-diazabicyclo[3.2.1]octan-3-yl]pyridazin-3-yl]phenol], for which, on BRG1, the DC50 is less than 10 nM and the Dmax is 0 to 30%. Further, at BRM, the DC50 was in the range of 10 to 100 nM and the “BRM IF Degradation Sinf (%)” value was “E (E indicates −30%-−70%)”.
